From patent publication US20180177749A1, “USE OF CYP EXPRESSION TO DIRECT THERAPEUTIC INTERVENTION IN CANCER” (REGENTS OF THE UNIVERSITY OF MINNESOTA, priority 2016, published 2018)

How the values were obtained:
MDA-MB-435/LCC6 = test: Cell growth inhibition, MDA-MB-435/LCC6; format: cell-based; conditions: MDA-MB-435/LCC6, Triple negative
T47D = test: Measurement of OCR and ECAR, T47D; format: cell-based, human; conditions: 20 and 40 μM
Experimental: Cells were maintained in growth medium consisting of 10% FBS at 37° C. with 5% CO2 and seeded at 100,000 cells per well in XF24-well cell culture microplates (Seahorse Bioscience, North Billirica, Mass.). Concentrated stocks of HBB were prepared in DMSO. HBB was diluted to 10× working concentration in XF assay medium (a non-buffered medium including 2 mM L-glutamine but no sodium bicarbonate (buffering agent), glucose, or sodium pyruvate). Assays were performed in the XF Extracellular Flux Analyzer (Seahorse Bioscience that measures uptake and excretion of metabolic end products in real time). Oxygen consumption rate (OCR) and extracellular acidification rate (ECAR) were measured using an XF Assay Kit. OCR is reported in pmoles/minute and ECAR in mpH/minute. Before analysis, the cells were switched from culture medium to XF assay medium. After baseline measurements, 75 μl of HBB prepared in assay medium was injected into each well to reach final working concentrations. After addition of HBB, OCR and ECAR were measured at 18-minute intervals. There were 5 replicates was performed for each data point for MCF-7, MDA-MB-231, T47D and MDA-MB-435 cell lines. There were 6 replicates for the studies of the 3-18 and 4-14 cell lines.

MCF-7 cells = test: Cellular ATP by luminescent assay; format: cell-based, human
Experimental: Cells were seeded in 96-well tissue culture plate in 100 μL medium per well. After treatment with either vehicle or testing compound for an appropriate length of time, 50 μL mammalian cell lysis solution was added to each well and the plate was shaken for 5 minutes on an orbital shaker. To each well, 50 μL luminescent substrate and luciferase solution were then added. After incubation in the dark for 10 minutes, the luminescence measured. Cellular ATP levels were then calculated against a standard curve generated with ATP standards of known concentration.

CCCCCCNC(=N)NC(=N)NCc1ccccc1 [HBB, N1-hexyl-N5-benzyl-biguanide]
IC50 (MDA-MB-435/LCC6): 12.5 µM | reduction of OCR and ECAR (T47D): significant vs. vehicle | ATP depletion (MCF-7 cells; 6 hours): 30% | total cellular ATP levels (MCF-7 cells; 6 hours of treatment, metformin 5 mM): reduced
